Assay results from patent US10813972B2, “Treatment of DNA damage and mitochondrial dysfunction using palm fruit juice” (BRANDEIS UNIVERSITY, priority 2013, dated 2020).

System: mitochondrial DNA (HV2, CO2, ND1) of HepG2 cells
Assay: mtDNA mutational load in HepG2 cells grown 30 days with INH or INH+PFJ (multiplex LATE-PCR/Lights On-Lights Off assay)
Assay type: cell-based, human
Details: 88 μM INH, HepG2, 30 days
Description: A liver carcinoma cell line (HepG2 cells, ATCC, Manassas, Va.) was grown for 30 days in the presence of either 88 μM INH (Sigma, St. Louis, Mo.) or 88 μM INH+50 μg/ml gallic acid equivalents (GAE) PFJ. A culture without these additives served as a non-treated control. Cells were grown in Eagle's Minimum Essential Medium (ATCC Manassas, Va.). The media were supplemented with 25 mM HEPES, 10% fetal bovine serum (BioWest), 50 units/mL Penicillin G, 50 units/mL Streptomycin, and 0.25 μg Amphotericin B (HyClone Antibiotic/Antimycotic Solution 100×) in 6-well plates at 37° C. and 5% CO2. The media and additives were replenished every other day. The cells were passaged as per ATCC's instructions at an initial density of 1×10^5 cells/ml.
At the end of the culture period, each HepG2 culture was tripsinized, spun at 100×g for 15 min at 4° C. and resuspended in Dulbecco's phosphate buffer solution (Sigma, St. Louis, Mo.) at a concentration of 1×10^3 cells/ml. DNA from these cultures was extracted by placing 5 μl of cell suspension into 32.5 μl volume of a lysis buffer containing 100 μg/ml proteinase K, 10 mM Tris-Cl pH 8.3, and 5 μM SDS (sodium-dodecyl-sulfate) and heating to 50° C. for 2 hours followed by 95° C. for 15 minutes. The samples were then stored at −20° C. […]

Compound: NNC(=O)c1ccncc1 [INH, isoniazid]
- mtDNA mutational load (fluorescent signature changes indicative of mitochondrial DNA mutations): increases mtDNA mutational load
